Literature values in article PMC8198792, “Prediction of Anticancer Peptides with High Efficacy and Low Toxicity by Hybrid Model Based on 3D Structure of Peptides” (International Journal of Molecular Sciences, 2021).
Like-named read-outs stand apart in the source and are kept apart here.

System: cancer cell lines
Design: method as in 6 sources, ref CancerPPD [45] and SATPdb ||| ref CancerPPD/SATPdb ||| ref CancerPPD, SATPdb, Swissprot (PDB) ||| ref CancerPPD/SATPdb/Swissprot(PDB) ||| ref CancerPPD / SATPdb ||| ...
Conditions: cited from earlier work
Source text: Supplement ijms-22-05630-s001.zip/ACPs(seguence).xlsx, sheet "D1" | column: Activity || Supplement ijms-22-05630-s001.zip/ACPs(seguence).xlsx, sheet "D2" | column: Activity || Supplement ijms-22-05630-s001.zip/ACPs(seguence).xlsx, sheet "D3" | column: Activity || (+ 2 further places)

[1] = ACPs dataset D2 (supplement ACPs(seguence).xlsx, sheet D2), dataset label 1/0 (ACP / non-ACP), entries identified by Swissprot(PDB ID), ref CancerPPD/SATPdb/Swissprot(PDB)
[2] = ACPs dataset D5, sheet "D5", label 1 = ACP, 0 = non-ACP, ref CancerPPD [45] and SATPdb
[3] = ACPs dataset D1, 1 = ACP (positive), 0 = non-ACP (negative), label taken from databases, ref CancerPPD [45] and SATPdb
[4] = ACPs dataset D4 (sheet "D4"), label 1 = ACP (CancerPPD ID), 0 = non-ACP (non-anticancer AMP, SATPdb ID), ref CancerPPD [45] and SATPdb
[5] = ACPs dataset D4 (sheet "D4"), label 1 = ACP, experimentally validated ACPs, ref CancerPPD [45] and SATPdb
[6] = ACPs dataset D5 (sheet "D5"), label 1 = ACP (positive set), sequences with CancerPPD/SATPdb ID, ref CancerPPD, SATPdb
[7] = ACPs dataset sheet D2, 1 = ACP (CancerPPD/SATPdb ID), 0 = non-ACP (Swissprot/PDB ID), ref CancerPPD, SATPdb, Swissprot (PDB)
[8] = ACPs dataset D3 (supplement sheet "D3"), 1 = ACP, 0 = non-ACP, ref CancerPPD [45] and SATPdb
[9] = ACPs dataset D5 (sheet "D5"), label 1 = ACP (positive set), 0 = non-ACP (negative set), ref CancerPPD [45] and SATPdb
[10] = ACPs dataset D1, label 1 = ACP, 0 = non-ACP (non-anticancer AMPs from SATPdb), ref CancerPPD/SATPdb
[11] = ACPs dataset D4 (sheet "D4"), label 1 = ACP, 0 = non-ACP, ref CancerPPD / SATPdb
[12] = ACPs dataset D3 (sheet "D3"), label 1 = ACP, 0 = non-ACP, ref CancerPPD/SATPdb

## VDENAEDTHGLCGEKTCSPAQVCLNNECACTAIRCMIFCPNGFKVDENGCEYPCTCA [3BG4 X-ray 2.50 D 1-57]
[1]
  Activity: 0
[2]
  Activity: 0

## RLGDILQKAREKIEGGLKKLVQKIKDFFGKFAPRTES [satpdb11337]
[3]
  Activity: 0
[4]
  Activity: 0

## GLLGLLGSVVSHVVPAIVGHF [compound 4416]
[3]
  Activity: 1
[5]
  Activity: 1
[6]
  Activity: 1
[7]
  Activity: 1

## KWLRRVWRWWR [compound 1877]
[8]
  Activity: 1
[4]
  Activity: 1
[9]
  Activity: 1

## GLFVGLAKVAAHNNPAIAEHFQA [compound 4390]
[3]
  Activity: 1
[5]
  Activity: 1
[6]
  Activity: 1
[7]
  Activity: 1

## KWKLFKKIPLKKF [compound 1122]
[8]
  Activity: 1
[4]
  Activity: 1
[9]
  Activity: 1

## QRACPRILKKCRRDSDCPGECICKENGYCG [2LJS NMR - A 1-30]
[9]
  Activity: 0
[7]
  Activity: 0

## RTCESPSNKFQGVCLNSQSCAKACPSEGFSGGRCSSLRCYCSKAC [satpdb13976]
[10]
  Activity: 0
[4]
  Activity: 0

## MRLKKRFKKFFISRKEYEKIEEILDIGLAKAMEETKDDELLTYDEIKELLGDK [3BPQ X-ray 2.20,A/C,1-52]
[1]
  Activity: 0
[2]
  Activity: 0

## ASFPWSCPSLSGVCRKVCLPTELFFGPLGCGKGFLCGVSHFL [satpdb13301]
[10]
  Activity: 0
[11]
  Activity: 0

## QLGELIQQGGQKIVEKIQKIGQRIRDFFSNLRPRQEA [satpdb13050]
[10]
  Activity: 0
[11]
  Activity: 0

## GLFDVIAKVASVIKKL [compound 4093]
[8]
  Activity: 1
[4]
  Activity: 1
[9]
  Activity: 1

## GLFAVIKKVAKVIKKL [compound 4138]
[8]
  Activity: 1
[4]
  Activity: 1
[9]
  Activity: 1

## GLLGSIFGAGKKIACALSGLC [satpdb11926]
[10]
  Activity: 0
[4]
  Activity: 0

## KNWKKILGKIIKVVK [compound 3509]
[8]
  Activity: 1
[4]
  Activity: 1
[9]
  Activity: 1

## MNQGKIWTVVPPAFGLPLMLGAVAITALLVHAAVLTHTTWYAAFLQGGVKKAA [1IJD X-ray 3.00 A/C/E 1-53]
[1]
  Activity: 0
[2]
  Activity: 0

## FKIPPIVKDTLKKFFKGGIAGVMGQ [satpdb10550]
[3]
  Activity: 0
[4]
  Activity: 0

## SGSDGGVCPKILKKCRRDSDCPGACICRGNGYCG [1HA9 NMR - A 1-34]
[9]
  Activity: 0
[7]
  Activity: 0

## GFKDLLKGAAKALVKTVLF [compound 4388]
[3]
  Activity: 1
[5]
  Activity: 1
[6]
  Activity: 1
[7]
  Activity: 1

## FLPLIGKILGTILGK [satpdb11777]
[10]
  Activity: 0
[4]
  Activity: 0

## WNPFKELERAGQRVRDAIISAAPAVATVGQAAAIARG [satpdb12131]
[10]
  Activity: 0
[4]
  Activity: 0

## MITDVQLAIFANMLGVSLFLLVVLYHYVAVNNPKKQE [2LAT NMR - A 1-37]
[1]
  Activity: 0
[9]
  Activity: 0

## TEWTACSKSCGMGFSTRV [satpdb28517]
[3]
  Activity: 1
[5]
  Activity: 1
[6]
  Activity: 1
[7]
  Activity: 1

## ALWKDILKNVGKAAGKAVLNTVTDMVNQ [compound 1707]
[8]
  Activity: 1
[5]
  Activity: 1
[6]
  Activity: 1

## GRVPYPRGGLLkLLKklLKKLlKL [compound 3587]
[8]
  Activity: 1
[4]
  Activity: 1
[9]
  Activity: 1

## SPWSSCSVTCGDGVITRIR [satpdb28070]
[3]
  Activity: 1
[5]
  Activity: 1
[6]
  Activity: 1
[7]
  Activity: 1

## AKLkAyPLKAKLyP [satpdb12877]
[12]
  Activity: 0
[11]
  Activity: 0
[2]
  Activity: 0

## GIGKFLHSAKKFGKAFVGEIMNSKKKKKKKKKK [satpdb13107]
[10]
  Activity: 0
[11]
  Activity: 0

## ALWKTMLKKLGTMALHAGKAALGAAADTISQGTQ [compound 1708]
[3]
  Activity: 1
[5]
  Activity: 1
[6]
  Activity: 1
[7]
  Activity: 1

## FAKKFAKKFKKFAKKFAKFAFAF [compound 1910]
[8]
  Activity: 1
[5]
  Activity: 1
[6]
  Activity: 1

## PRAWEYWLRLME [compound 4582]
[3]
  Activity: 1
[5]
  Activity: 1
[6]
  Activity: 1
[7]
  Activity: 1

## CENTISGCSRADCLLTHRKQGCQKTCGLC [5WCV NMR - A 1-29]
[9]
  Activity: 0
[7]
  Activity: 0

## WDLVVVSAGVAEVGV [satpdb12938]
[3]
  Activity: 1
[5]
  Activity: 1
[6]
  Activity: 1
[7]
  Activity: 1

## VOLOfPVOLfP [satpdb12074]
[12]
  Activity: 0
[11]
  Activity: 0
[2]
  Activity: 0

## GLFDVIKKVAAVIGGL [compound 4066]
[8]
  Activity: 1
[4]
  Activity: 1
[9]
  Activity: 1

## VSRRRRRRGGRRRR [satpdb11057]
[3]
  Activity: 0
[4]
  Activity: 0

## MVAYWRQAGLSYIRYSQICAKAVRDALKTEFKANAMKTSGSTIKIVKVKKE [2W6J X-ray 3.84,I,1-51]
[1]
  Activity: 0
[2]
  Activity: 0

## PAARKAARWAWRMLKKGA [compound 1614]
[3]
  Activity: 1
[5]
  Activity: 1
[6]
  Activity: 1
[7]
  Activity: 1

## GVLSNVIGYLKKLGTGALNAVLKQ [satpdb12685]
[10]
  Activity: 0
[4]
  Activity: 0

## GSSFLSPEHQLAQQRKESKKPPAKLQPR [satpdb13082]
[10]
  Activity: 0
[11]
  Activity: 0

## GAIKDALKGAAKTVAVELLKKAQCKLEKTC [satpdb13113]
[10]
  Activity: 0
[11]
  Activity: 0

## KKLLKWLKKLL [satpdb14598]
[12]
  Activity: 0
[11]
  Activity: 0
[2]
  Activity: 0

## KWKLFKKIPKFLHLA [compound 1134]
[8]
  Activity: 1
[4]
  Activity: 1
[9]
  Activity: 1

## CTTGPCCRQCKLKPAGTTCWKTSLTSHYCTGKSCDCPLYPG [1MPZ NMR - A 1-41]
[1]
  Activity: 0
[9]
  Activity: 0

## LVPRGSRAGSPSGGPFCALARQPLTGARLMSGLFFALHET [satpdb15805]
[3]
  Activity: 1
[5]
  Activity: 1
[6]
  Activity: 1
[7]
  Activity: 1

## NVLLSPLSVATALSALSLGAEQRTES [satpdb18073]
[3]
  Activity: 1
[5]
  Activity: 1
[6]
  Activity: 1
[7]
  Activity: 1

## KWKLFKKIPHLAKKF [compound 1140]
[8]
  Activity: 1
[4]
  Activity: 1
[9]
  Activity: 1

## GLLPCAESCVYIPCLTTVIGCSCKSKVCYKN [compound 4423]
[3]
  Activity: 1
[5]
  Activity: 1
[6]
  Activity: 1
[7]
  Activity: 1

## YRGGYTGPIPRPPPIGRPPLRLVVCACYRLS [satpdb12661]
[10]
  Activity: 0
[4]
  Activity: 0

## GPWAPCSASCGGGSQSRS [satpdb28727]
[3]
  Activity: 1
[5]
  Activity: 1
[6]
  Activity: 1
[7]
  Activity: 1

## DKLIGSCVWGAVNYTSDCNGECKRRGYKGGHCGSFANVNCWCET [1I2U NMR - A 1-44]
[1]
  Activity: 0
[9]
  Activity: 0

## GILGKLWEGFKSIV [satpdb13792]
[12]
  Activity: 0
[11]
  Activity: 0
[2]
  Activity: 0
